# Measurements taken from patent publication US9573930B2 (Quanticel Pharmaceuticals, Inc., priority 2014, dated 2017).
# Biological target: full-length human LSD1 (Homo sapiens (Human), UniProt O60341)
# Test: In vitro enzyme inhibition assay LSD-1 (TR-FRET)
# Format: biochemical
# Settings: H3K4me1-biotin peptide
# Protocol: This assay determines the ability of a test compound to inhibit LSD1 demethylase activity.
# The enzymatic assay of LSD1 activity is based on Time Resolved-Fluorescence Resonance Energy Transfer (TR-FRET) detection.
# The ability of the compounds disclosed herein to inhibit LSD1 activity was quantified and the respective IC50 value was determined.
row,SMILES,IC50
1,"CCn1c(N2CCC(N)CC2)nc(-c2ccc(C#N)c(F)c2)cc1=O [Example 13, 4-[2-(4-amino-piperidin-1-yl)-1-ethyl-6-oxo-1,6-dihydro-pyrimidin-4-yl]-2-fluoro-benzonitrile]",0.1 to 1 µM
2,"N#Cc1ccc(-c2cc(=O)n(CCCO)c(N3CCC(N)CC3)n2)cc1F [Example 17, 4-[2-(4-amino-piperidin-1-yl)-1-(3-hydroxy-propyl)-6-oxo-1,6-dihydro-pyrimidin-4-yl]-2-fluoro-benzonitrile]",0.1 to 1 µM
3,"COc1ccc(-c2c(-c3ccc(C#N)c(F)c3)nc(N3CCC[C@@H](N)C3)n(C)c2=O)cc1F [Example 25, 4-[2-((3R)-3-aminopiperidyl)-5-(3-fluoro-4-methoxyphenyl)-1-methyl-6-oxohydropyrimidin-4-yl]-2-fluorobenzenecarbonitrile]",< 0.1 µM
4,"COc1ncc(-c2c(-c3ccc(C#N)c(F)c3)nc(N3CCC(N)CC3)n(C)c2=O)cc1F [Example 26, 4-[2-(4-aminopiperidyl)-5-(5-fluoro-6-methoxy(3-5,6-dihydropyridyl))-1-methyl-6-oxohydropyrimidin-4-yl]-2-fluorobenzenecarbonitrile]",< 0.1 µM
5,"COc1ccc(-c2c(-c3ccc(C#N)c(F)c3)nc(N3CC[C@@H](N)C3)n(C)c2=O)cc1F [Example 27, 4-[2-((3R)-3-aminopyrrolidinyl)-5-(3-fluoro-4-methoxyphenyl)-1-methyl-6-oxohydropyrimidin-4-yl]-2-fluorobenzenecarbonitrile]",< 0.1 µM
6,"COc1ccc(-c2c(-c3ccc(C#N)c(F)c3)nc(N3CCC[C@H](N)C3)n(C)c2=O)cc1F [Example 28, 4-[2-((3S)-3-amino-piperidin-1-yl)-5-(3-fluoro-4-methoxy-phenyl)-1-methyl-6-oxo-1,6-dihydro-pyrimidin-4-yl]-2-fluoro-benzonitrile]",< 0.1 µM
7,"COc1ccc(-c2c(-c3ccc(C#N)c(F)c3)nc(N3CC[C@H](N)C3)n(C)c2=O)cc1F [Example 29, 4-[2-((3S)-3-amino-pyrrolidin-1-yl)-5-(3-fluoro-4-methoxy-phenyl)-1-methyl-6-oxo-1,6-dihydro-pyrimidin-4-yl]-2-fluoro-benzonitrile]",< 0.1 µM
8,"COc1ccc(-c2c(-c3ccc(C#N)c(F)c3)nc(N3CCC[C@@H](N)C3)n(C)c2=O)cc1 [Example 30, 4-[2-((3R)-3-aminopiperidyl)-5-(4-methoxyphenyl)-1-methyl-6-oxohydropyrimidin-4-yl]-2-fluorobenzenecarbonitrile]",< 0.1 µM
9,"COc1ccc(-c2c(-c3ccc(C#N)c(F)c3)nc(N3CCC[C@H](N)C3)n(C)c2=O)cc1 [Example 31, 4-[2-((3S)-3-amino-piperidin-1-yl)-5-(4-methoxy-phenyl)-1-methyl-6-oxo-1,6-dihydro-pyrimidin-4-yl]-2-fluoro-benzonitrile]",< 0.1 µM
10,"COc1ccc(-c2c(-c3ccc(C#N)c(F)c3)nc(N3CCC(C)(N)CC3)n(C)c2=O)cc1F [Example 32, 4-[2-(4-amino-4-methyl-piperidin-1-yl)-5-(3-fluoro-4-methoxy-phenyl)-1-methyl-6-oxo-1,6-dihydro-pyrimidin-4-yl]-2-fluoro-benzonitrile]",< 0.1 µM
11,"Cn1c(N2CCC(N)CC2)nc(-c2ccc(C#N)c(F)c2)c(-c2cnn(CC(F)(F)F)c2)c1=O [Example 34, 4-{2-(4-amino-piperidin-1-yl)-1-methyl-6-oxo-5-[1-(2,2,2-trifluoro-ethyl)-1H-pyrazol-4-yl]-1,6-dihydro-pyrimidin-4-yl}-2-fluoro-benzonitrile]",< 0.1 µM
12,"Cn1c(N2CCC(N)CC2)nc(-c2ccc(C#N)cc2)c(-c2cnn(CC(F)(F)F)c2)c1=O [Example 36, 4-{2-(4-amino-piperidin-1-yl)-1-methyl-6-oxo-5-[1-(2,2,2-trifluoro-ethyl)-1H-pyrazol-4-yl]-1,6-dihydro-pyrimidin-4-yl}-benzonitrile]",< 0.1 µM
13,"Cn1cc2cc(-c3c(-c4ccc(C#N)c(F)c4)nc(N4CCC(N)CC4)n(C)c3=O)ccc2n1 [Example 37, 4-[2-(4-aminopiperidyl)-1-methyl-5-(2-methyl(2H-indazol-5-yl))-6-oxohydropyrimidin-4-yl]-2-fluorobenzenecarbonitrile]",< 0.1 µM
14,"COc1c(F)cc(-c2c(-c3ccc(C#N)cc3)nc(N3CCC(N)CC3)n(C)c2=O)cc1F [Example 38, 4-[2-(4-aminopiperidyl)-5-(3,5-difluoro-4-methoxyphenyl)-1-methyl-6-oxohydropyrimidin-4-yl]benzenecarbonitrile]",< 0.1 µM
15,"Cn1c(N2CCC(N)CC2)nc(-c2ccc(C#N)c(F)c2)c(-c2ccc(C(=O)O)cc2)c1=O [Example 39, 4-[2-(4-aminopiperidyl)-6-(4-cyano-3-fluorophenyl)-3-methyl-4-oxo-3-hydropyrimidin-5-yl]benzoic acid]",0.1 to 1 µM
16,"CNC(=O)c1ccc(-c2c(-c3ccc(C#N)cc3)nc(N3CCC(N)CC3)n(C)c2=O)cc1F [Example 40, {4-[2-(4-aminopiperidyl)-6-(4-cyanophenyl)-3-methyl-4-oxo(3-hydropyrimidin-5-yl)]-2-fluorophenyl}-N-methylcarboxamide]",< 0.1 µM

# Next, values leading:
row,IC50,SMILES
1,< 0.1 µM,"COc1ccc(-c2c(-c3ccc(C#N)c(F)c3)nc(N(C)C[C@@H]3CCNC3)n(C)c2=O)cc1 (stereo in doubt) [Example 56, 2-fluoro-4-[5-(4-methoxy-phenyl)-1-methyl-2-(methyl-pyrrolidin-3-ylmethyl-amino)-6-oxo-1,6-dihydro-pyrimidin-4-yl]-benzonitrile]"
2,< 0.1 µM,"COc1ccc(-c2c(-c3ccc(C#N)cc3)nc(N3CCC(N)CC3)n(C)c2=O)cn1 [Example 3, 4-[2-(4-amino-piperidin-1-yl)-5-(6-methoxy-pyridin-3-yl)-1-methyl-6-oxo-1,6-dihydro-pyrimidin-4-yl]-benzonitrile]"
3,< 0.1 µM,"Cc1ccc(-c2c(-c3ccc(C#N)cc3)nc(N3CCC(N)CC3)n(C)c2=O)cn1 [Example 4, 4-[2-(4-amino-piperidin-1-yl)-1-methyl-5-(6-methyl-pyridin-3-yl)-6-oxo-1,6-dihydro-pyrimidin-4-yl]-benzonitrile]"
4,< 0.1 µM,"COc1ccc(-c2c(-c3ccc(C#N)c(F)c3)nc(N3CCC(N)CC3)n(C)c2=O)cc1 [Example 6, 4-[2-(4-amino-piperidin-1-yl)-5-(4-methoxy-phenyl)-1-methyl-6-oxo-1,6-dihydro-pyrimidin-4-yl]-2-fluoro-benzonitrile]"
5,< 0.1 µM,"COc1ccc(-c2c(-c3ccc(C#N)c(F)c3)nc(N3CCC(N)CC3)n(C)c2=O)cn1 [Example 8, 4-[2-(4-amino-piperidin-1-yl)-5-(6-methoxy-pyridin-3-yl)-1-methyl-6-oxo-1,6-dihydro-pyrimidin-4-yl]-2-fluoro-benzonitrile]"
6,< 0.1 µM,Cc1ccc(-c2c(-c3ccc(C#N)c(F)c3)nc(N3CCC(N)CC3)n(C)c2=O)cn1 [Example 9]
7,< 0.1 µM,"CCc1ccc(-c2c(-c3ccc(C#N)cc3)nc(N3CCC(N)CC3)n(C)c2=O)cn1 [Example 10, 4-[2-(4-amino-piperidin-1-yl)-5-(6-ethyl-pyridin-3-yl)-1-methyl-6-oxo-1,6-dihydro-pyrimidin-4-yl]-benzonitrile]"
8,< 0.1 µM,"CNC1CCN(c2nc(-c3ccc(C#N)c(F)c3)c(-c3ccc(OC)cc3)c(=O)n2C)CC1 [Example 11, 2-fluoro-4-[5-(4-methoxy-phenyl)-1-methyl-2-(4-methylamino-piperidin-1-yl)-6-oxo-1,6-dihydro-pyrimidin-4-yl]-benzonitrile]"
9,< 0.1 µM,"CNC1CCN(c2nc(-c3ccc(C#N)c(F)c3)c(-c3ccc(OC)c(F)c3)c(=O)n2C)CC1 [Example 12, 2-fluoro-4-[5-(3-fluoro-4-methoxy-phenyl)-1-methyl-2-(4-methylamino-piperidin-1-yl)-6-oxo-1,6-dihydro-pyrimidin-4-yl]-benzonitrile]"
10,< 0.1 µM,"Cn1c(N2CCC(N)CC2)nc(-c2ccc(C#N)c(F)c2)c(C#CC2CCCC2)c1=O [Example 14, 4-[2-(4-amino-piperidin-1-yl)-5-cyclopentylethynyl-1-methyl-6-oxo-1,6-dihydro-pyrimidin-4-yl]-2-fluoro-benzonitrile]"
11,< 0.1 µM,"COc1ccc(-c2c(-c3ccc(C#N)c(F)c3)nc(N3CCC(N)CC3)n(CC(=O)O)c2=O)cc1 [Example 15, [2-(4-amino-piperidin-1-yl)-4-(4-cyano-3-fluoro-phenyl)-5-(4-methoxy-phenyl)-6-oxo-6H-pyrimidin-1-yl]-acetic acid]"
12,< 0.1 µM,"COc1ccc(-c2c(-c3ccc(C#N)c(F)c3)nc(N3CCC(N)CC3)n(CC(N)=O)c2=O)cc1 [Example 16, 2-[2-(4-amino-piperidin-1-yl)-4-(4-cyano-3-fluoro-phenyl)-5-(4-methoxy-phenyl)-6-oxo-6H-pyrimidin-1-yl]-acetamide]"
13,< 0.1 µM,"Cn1c(N2CCC(N)CC2)nc(-c2ccc(C#N)c(F)c2)c(-c2ccc3occc3c2)c1=O [Example 18, 4-[2-(4-amino-piperidin-1-yl)-5-benzofuran-5-yl-1-methyl-6-oxo-1,6-dihydro-pyrimidin-4-yl]-2-fluoro-benzonitrile]"
14,< 0.1 µM,"Cn1c(N2CCC(N)CC2)nc(-c2ccc(C#N)c(F)c2)c(C#N)c1=O [Example 19, 2-(4-amino-piperidin-1-yl)-4-(4-cyano-3-fluoro-phenyl)-1-methyl-6-oxo-1,6-dihydro-pyrimidine-5-carbonitrile]"
15,< 0.1 µM,"CNC1CCN(c2nc(-c3ccc(C#N)c(F)c3)c(-c3ccc(C)nc3)c(=O)n2C)CC1 [Example 21, 2-fluoro-4-[1-methyl-2-(4-methylamino-piperidin-1-yl)-5-(6-methyl-pyridin-3-yl)-6-oxo-1,6-dihydro-pyrimidin-4-yl]-benzonitrile]"
16,< 0.1 µM,"COc1ccc(-c2c(-c3ccc(C#N)c(F)c3)nc(N3CCC4(CCNC4)CC3)n(C)c2=O)cc1F [Example 22, 4-[2-(2,8-diaza-spiro[4.5]dec-8-yl)-5-(3-fluoro-4-methoxy-phenyl)-1-methyl-6-oxo-1,6-dihydro-pyrimidin-4-yl]-2-fluoro-benzonitrile]"
